Assay: xn = mol fraction of the nth substance listed
Details: 101 kPa, Liquid

Clc1ccccc1 [chlorobenzene] + CCCCCCCO
Details | mass density, 308.15 K [kg/m3] | mass density, 313.15 K [kg/m3] | speed of sound, 308.15 K [m/s] | speed of sound, 313.15 K [m/s] | viscosity, 308.15 K [mPa·s] | viscosity, 313.15 K [mPa·s]
x1 = 0.1306 | 838.9 | 835.146 | 1283.3 | 1266.5 | 3.311 | 2.872
x1 = 0.2566 | 866.926 | 862.967 | 1272.1 | 1255.6 | 2.532 | 2.219
x1 = 0.3866 | 898.052 | 893.905 | 1260.4 | 1243.8 | 1.922 | 1.705
x1 = 0.4947 | 925.892 | 921.55 | 1250.2 | 1233.6 | 1.543 | 1.378
x1 = 0.5878 | 951.47 | 946.95 | 1242 | 1225.3 | 1.283 | 1.135
x1 = 0.6827 | 979.252 | 974.575 | 1235 | 1217.9 | 1.059 | 0.953
x1 = 0.7682 | 1006.02 | 1001.13 | 1230.1 | 1212.9 | 0.915 | 0.822
x1 = 0.8521 | 1034.12 | 1029.02 | 1227.6 | 1209.9 | 0.816 | 0.723
x1 = 0.9255 | 1060.42 | 1055.08 | 1228 | 1209.7 | 0.733 | 0.662
x1 = 1 | 1089.08 | 1083.66 | 1230.9 | 1212.6 | 0.677 | 0.617

Reference: the NIST ThermoML archive (doi:10.1021/je060353z)
